Experimental data taken from ChEMBL document CHEMBL2074350, “Immunosuppressants FK506 and rapamycin function as reversal agents of the multidrug resistance phenotype” (Blood, 1992).

Target: ATP-dependent translocase ABCB1 (Homo sapiens, UniProt P08183)
Assay: TP_TRANSPORTER: increase in Daunomycin intracellular accumulation (Daunomycin: 10 uM, Rapamycin: 5 uM) in CEM/VBL 250 cells
Format: functional, cell-based
Conditions: cem/vbl 250, 5 µM

Chain of ATP-dependent translocase ABCB1 (P08183 whole entry): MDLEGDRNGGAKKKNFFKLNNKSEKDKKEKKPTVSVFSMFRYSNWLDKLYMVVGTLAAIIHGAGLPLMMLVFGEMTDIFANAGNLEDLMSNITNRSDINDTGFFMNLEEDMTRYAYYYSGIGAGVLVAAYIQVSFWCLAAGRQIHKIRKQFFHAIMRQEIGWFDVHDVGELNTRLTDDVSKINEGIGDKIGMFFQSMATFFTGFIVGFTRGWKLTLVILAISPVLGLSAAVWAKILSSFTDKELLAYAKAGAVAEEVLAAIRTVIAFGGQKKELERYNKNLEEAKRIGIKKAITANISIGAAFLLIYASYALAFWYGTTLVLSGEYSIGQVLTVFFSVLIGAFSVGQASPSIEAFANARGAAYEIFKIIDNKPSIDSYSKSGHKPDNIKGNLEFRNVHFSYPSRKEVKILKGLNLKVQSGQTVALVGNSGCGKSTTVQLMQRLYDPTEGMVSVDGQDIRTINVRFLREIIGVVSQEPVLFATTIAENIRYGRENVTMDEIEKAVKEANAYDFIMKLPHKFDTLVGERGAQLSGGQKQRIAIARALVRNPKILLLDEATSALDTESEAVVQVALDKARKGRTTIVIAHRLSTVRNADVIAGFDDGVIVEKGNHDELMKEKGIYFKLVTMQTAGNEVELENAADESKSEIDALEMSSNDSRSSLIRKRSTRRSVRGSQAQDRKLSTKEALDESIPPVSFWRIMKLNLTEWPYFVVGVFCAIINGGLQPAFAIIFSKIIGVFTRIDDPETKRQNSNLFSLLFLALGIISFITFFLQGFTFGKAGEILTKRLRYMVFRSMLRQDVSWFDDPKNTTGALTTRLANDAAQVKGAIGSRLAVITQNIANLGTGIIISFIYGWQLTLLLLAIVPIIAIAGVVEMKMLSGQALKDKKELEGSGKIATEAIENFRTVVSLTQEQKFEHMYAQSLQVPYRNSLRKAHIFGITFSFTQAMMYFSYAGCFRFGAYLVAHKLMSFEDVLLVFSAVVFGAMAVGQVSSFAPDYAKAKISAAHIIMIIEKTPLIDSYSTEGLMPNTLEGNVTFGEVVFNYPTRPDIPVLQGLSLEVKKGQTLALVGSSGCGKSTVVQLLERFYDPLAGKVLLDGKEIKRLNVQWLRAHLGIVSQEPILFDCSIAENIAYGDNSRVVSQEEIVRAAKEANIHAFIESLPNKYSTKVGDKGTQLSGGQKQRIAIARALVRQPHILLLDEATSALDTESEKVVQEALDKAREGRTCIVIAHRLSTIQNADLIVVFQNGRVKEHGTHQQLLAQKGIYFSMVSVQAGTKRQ

CO[C@H]1C[C@@H]2CC[C@@H](C)[C@@](O)(O2)C(=O)C(=O)N2CCCC[C@H]2C(=O)O[C@H]([C@H](C)C[C@@H]2CC[C@@H](O)[C@H](OC)C2)CC(=O)[C@H](C)/C=C(\C)[C@@H](O)[C@@H](OC)C(=O)[C@H](C)C[C@H](C)/C=C/C=C/C=C/1C [SIROLIMUS]
Activity: inhibitor [(at a rough estimate) 7-fold]
